# Legend:
# [1] = system: mouse macrophages (RAW 264.7); test: In vitro innate immune response: cytokine secretion (ELISA) of macrophages treated with HDM-EV; format: cell-based; conditions: house dust mite-derived vesicles with Polymyxin B
# Method: (§1) In detail, mouse macrophages (RAW264.7) were seeded at a density of 1×10^5 cells/well into 24 well plates and grown for 24 hours. After the cells were washed with PBS, a fresh DMEM medium was added to the cells which were then incubated for 15 hours with 100 ng, 1 μg and 10 μg of house dust mite-derived extracellular vesicles (HDM-EV). The culture media were harvested and centrifuged at 4° C. and 800×g for 10 min. Cytokines in the supernatant were quantitatively analyzed by enzyme linked immunosorbent assay (ELISA).
# C57BL/6 mice = test: In vivo acquired immune response to repetitive intranasal Dust-EV with or without PMB; design: species or system mouse
# Method: C57BL/6 mice (6 weeks old, female, four in each group) were intranasally administered twice a week for three weeks with 1 μg of indoor dust-derived extracellular vesicles in 30 μl of PBS. In addition, the vesicles were administered together with PMB so as to examine the presence and role of LPS therein. Twenty four hours after injection, clinical analysis was performed.
# Moreover, the immunological mechanism associated with the onset of lung inflammation was evaluated. Immune cells were separated from local lymph nodes and analyzed for the expression levels of IFN-γ and IL-17.
# [2] = system: mouse macrophages (RAW 264.7); test: In vitro innate immunity: cytokine secretion (ELISA) of macrophages treated with indoor dust-derived vesicles; format: cell-based; conditions: Dust-EV treated with PMB or heat, vs Dust-EV alone
# Method: Indoor dust was solubilized in PBS to separate extracellular vesicles and soluble components. The induction of innate immune responses by the vesicles and the water-soluble components was examined in vitro by applying them to mouse macrophages and measuring cytokine levels in the culture media.
# as §1, with “maintained” for “grown”, “dust-derived” for “100 ng, 1 μg and 10 μg of house dust mite-derived”, “(Dust-EV, 0.1 μg/ml) and soluble components (Dust-soluble, 8 μg/ml), separately.” for “(HDM-EV).”
# In addition, cytokine levels were measured after the cells were treated with 100 ng/ml and 1 μg/ml of the extracellular vesicles in the same manner as described above.
# It is well known that LPS, found in the outer membrane of Gram-negative bacteria, acts as an endotoxin to induce innate immune responses and that it has been detected in indoor dust.
# [3] = vesicles in combination with PMB, ELISA
substance,measurement,setting,value
Polymyxin B [PMB],vesicle-induced secretion of inflammatory mediators,[1],suppressed
same,count of inflammatory cells in BAL fluid,"C57BL/6 mice; Dust-EV administered together with PMB (Dust-EV+PMB), in contrast to vesicles alone",low
same,count of T cells secreting IFN-γ and IL-17 in local lymph nodes,C57BL/6 mice; Dust-EV in the presence of PMB,reduced the count of T cells including those secreting IFN-γ and IL-17 in local lymph nodes
same,level of IgG1 specific for indoor dust-derived vesicles in sera,C57BL/6 mice; [3],reduced to almost the same as those of the PBS group
same,level of IgG2a specific for indoor dust-derived vesicles in sera,C57BL/6 mice; [3],reduced to almost the same as those of the PBS group
same,vesicle-induced secretion of IL-6,[2],significantly reduced
same,vesicle-induced secretion of TNF-α,[2],significantly decreased
